In patent publication US20110009265A1, “Herbicidal Compositions Comprising Pyroxasulfone” (BASF SE, priority 2008, published 2011):
Where two headings read alike, the source gives them in different places.

Columns and labels:
Type in all cases: in vivo
[1] = test system: Bromus inermis (BROIN); assay: greenhouse pre-emergence herbicidal activity; settings: read-out: observed % activity; for inhibition at 125 g/ha: 125 g ai/ha; for inhibition at 250 g/ha: 250 g ai/ha
Source text: (§1) For the pre-emergence treatment, directly after sowing the active compounds, which had been suspended or emulsified in water, were applied by means of finely distributed nozzles. The containers were irrigated gently to promote germination and growth and subsequently covered with transparent plastic hoods until plant had rooted. This cover caused uniform germination of the tests plants, unless this was adversely affected by active compounds.
(§2) The respective herbicides A and/or safener were formulated as 10% by weight strength suspension concentrate and introduced to the spray liquor with the amount of solvent system used for applying the active compound. Herbicide B and/or safener were used as commercially available formulations and introduced to the spray liquor with the amount of solvent system used for applying the active compound. In the examples, the solvent used was water.
(§3) Pendimethalin was used as a commercial aqueous suspension concentrate having an active ingredient concentration of 400 g/l.
(§4) The test period extended over 21 days. During this time, the plants were tended, and their response to the treatments with active compound was evaluated.
(§5) The evaluation for the damage caused by the chemical compositions was carried out using a scale from 0 to 100%, compared to the untreated control plants. Here, 0 means no damage and 100 means complete destruction of the plants.
(§6) The value E, which is to be expected if the activity of the individual compounds is just additive, was calculated using the method of S. R. Colby (1967) “Calculating synergistic and antagonistic responses of herbicide combinations”, Weeds 15, p. 22 ff.
(§7) where • X=effect in percent using herbicide A at an application rate a; • Y=effect in percent using herbicide B at an application rate b; • E=expected effect (in %) of A+B at application rates a+b.
(§8) If the value observed in this manner is higher than the value E calculated according to Colby, a synergistic effect is present.

[2] = test system: Phalaris canariensis (PHACA); assay: greenhouse pre-emergence herbicidal activity; settings: read-out: observed % activity; for inhibition at 125 g/ha: 125 g ai/ha; for inhibition at 250 g/ha: 250 g ai/ha
Source text: as §1, §2, §3, §4, §5, §6, §7, §8

[3] = test system: Galium aparine (GALAP); assay: greenhouse pre-emergence herbicidal activity; settings: read-out: observed % activity; for inhibition at 125 g/ha: 125 g ai/ha; for inhibition at 250 g/ha: 250 g ai/ha
Source text: as §1, §2, §3, §4, §5, §6, §7, §8

[4] = test system: Thlaspi arvense (THLAR); assay: greenhouse pre-emergence herbicidal activity; settings: 125 g ai/ha, read-out: observed % activity
Source text: as §1, §2, §3, §4, §5, §6, §7, §8

[5] = test system: Veronica persica (VERPE); assay: greenhouse pre-emergence herbicidal activity; settings: read-out: observed % activity; for inhibition at 250 g/ha: 250 g ai/ha; for inhibition at 500 g/ha: 500 g ai/ha; for inhibition at 1000 g/ha: 1000 g ai/ha
Source text: as §1, §2, §3, §4, §5, §6, §7, §8

[6] = test system: Capsella bursa-pastoris (CAPBP); assay: greenhouse pre-emergence herbicidal activity; settings: 500 g ai/ha, read-out: observed % activity
Source text: as §1, §2, §3, §4, §5, §6, §7, §8

[7] = test system: Avena fatua (AVEFA); assay: greenhouse pre-emergence herbicidal activity; settings: 125 g ai/ha, read-out: observed % activity
Source text: as §1, §2, §3, §4, §5, §6, §7, §8

[8] = test system: Alopecurus myosuroides (ALOMY); assay: greenhouse post-emergence herbicidal activity; settings: 250 g ai/ha; for inhibition at 250 g/ha: Alopecurus myosuroides, read-out: observed % activity
Source text: (§9) For the post-emergence treatment, the test plants were first grown to a height of 3 to 20 cm, depending on the plant habit, and only then treated. Here, the herbicidal compositions were suspended or emulsified in water as distribution medium and sprayed using finely distributing nozzles.
as §2, §3, §4, §5, §6, §7, §8

[9] = test system: Matricaria inermis (MATIN); assay: greenhouse post-emergence herbicidal activity; settings: 250 g ai/ha, read-out: observed % activity
Source text: as §9, §2, §3, §4, §5, §6, §7, §8

[10] = test system: Lamium purpureum (LAMPU); assay: greenhouse post-emergence herbicidal activity; settings: 500 g ai/ha, 20 DAT
Source text: as §9, §2, §3, §4, §5, §6, §7, §8

[11] = test system: Stellaria media (STEME); assay: greenhouse post-emergence herbicidal activity; settings: 20 DAT
Source text: as §9, §2, §3, §4, §5, §6, §7, §8

[12] = test system: Apera spica-venti (APESV); assay: greenhouse post-emergence herbicidal activity; settings: 500 g ai/ha, 20 DAT
Source text: as §9, §2, §3, §4, §5, §6, §7, §8

[13] = test system: Thlaspi arvense (THLAR); assay: greenhouse post-emergence herbicidal activity; settings: for inhibition at 250 g/ha: Thlaspi arvense, read-out: observed % activity
Source text: as §9, §2, §3, §4, §5, §6, §7, §8

[14] = test system: Amaranthus retroflexus (AMARE); assay: greenhouse post-emergence herbicidal activity; settings: 500 g ai/ha, 20 DAT
Source text: as §9, §2, §3, §4, §5, §6, §7, §8

[15] = test system: Viola arvensis (VIOAR); assay: greenhouse post-emergence herbicidal activity; settings: 500 g ai/ha, 20 DAT
Source text: as §9, §2, §3, §4, §5, §6, §7, §8

[16] = test system: Capsella bursa-pastoris (CAPBP); assay: greenhouse post-emergence herbicidal activity; settings: 1000 g ai/ha, 20 DAT
Source text: as §9, §2, §3, §4, §5, §6, §7, §8

## CCC(CC)Nc1c([N+](=O)[O-])cc(C)c(C)c1[N+](=O)[O-] [pendimethalin]
[1]; 192 h, 8 DAT
  inhibition at 125 g/ha: 20%
  inhibition at 250 g/ha: 20%
[1]; 480 h, 20 DAT
  inhibition at 125 g/ha: 0%
  inhibition at 250 g/ha: 0%
[2]; 192 h, 8 DAT
  inhibition at 125 g/ha: 0%
  inhibition at 250 g/ha: 30%
[2]; 480 h, 20 DAT
  inhibition at 125 g/ha: 0%
  inhibition at 250 g/ha: 0%
[3]; 192 h, 8 DAT
  inhibition at 125 g/ha: 0%
  inhibition at 250 g/ha: 0%
[3]; 480 h, 20 DAT
  inhibition at 125 g/ha: 0%
  inhibition at 250 g/ha: 0%
[4]; 192 h, 8 DAT
  inhibition at 125 g/ha: 0%
[4]; 480 h, 20 DAT
  inhibition at 125 g/ha: 20%
[5]; 192 h, 8 DAT
  inhibition at 250 g/ha: 65%
  inhibition at 500 g/ha: 65%
  inhibition at 1000 g/ha: 70%
[5]; 480 h, 20 DAT
  inhibition at 250 g/ha: 85%
  inhibition at 500 g/ha: 85%
  inhibition at 1000 g/ha: 90%
[6]; 192 h, 8 DAT
  inhibition at 500 g/ha: 50%
[6]; 480 h, 20 DAT
  inhibition at 500 g/ha: 85%
[7]; 192 h, 8 DAT
  inhibition at 125 g/ha: 0%
[7]; 480 h, 20 DAT
  inhibition at 125 g/ha: 0%
[8]; 20 DAT
  observed activity in % destruction 20 days after treatment: 45%
[8]; 168 h, 7 DAT
  inhibition at 250 g/ha: 35%
[8]; 480 h, 20 DAT
  inhibition at 250 g/ha: 45%
[9]; 168 h, 7 DAT
  inhibition at 250 g/ha: 0%
[9]; 480 h, 20 DAT
  inhibition at 250 g/ha: 0%
[10]
  observed activity in % destruction 20 days after treatment: 90%
[11]; 250 g ai/ha
  observed activity in % destruction 20 days after treatment: 85%
[11]; 1000 g ai/ha
  observed activity in % destruction 20 days after treatment: 90%
[12]
  observed activity in % destruction 20 days after treatment: 10%
[13]; 250 g ai/ha, 20 DAT
  observed activity in % destruction 20 days after treatment: 80%
[13]; 1000 g ai/ha, 20 DAT
  observed activity in % destruction 20 days after treatment: 90%
[13]; 168 h, 250 g ai/ha, 7 DAT
  inhibition at 250 g/ha: 55%
[13]; 480 h, 250 g ai/ha, 20 DAT
  inhibition at 250 g/ha: 80%
[14]
  observed activity in % destruction 20 days after treatment: 80%
[15]
  observed activity in % destruction 20 days after treatment: 85%
[16]
  observed activity in % destruction 20 days after treatment: 95%
